Reference: patent US20250136633A1, “TELOMERE-TARGETING PHOSPHATIDYL-THIO CONJUGATES” (MAIA BIOTECHNOLOGY, INC., priority 2023, published 2025)

Legend:
[1] = tested on: HT29 Colorectal Carcinoma Cells (CRC); experiment: In vitro anticancer activity (cytotoxicity) of phosphatidyl-THIO conjugates in HT29 cells; type: cell-based; details: for EC50: Homo sapiens, HT 29 CRC cells; for anticancer (cytotoxic) activity, in words: in vitro, comparison among the phosphatidyl conjugates and with the free pharmacophores
Protocol: The in vitro activity of Phosphatidyl-THIO conjugates were tested in HT29 Colorectal Carcinoma Cells (CRC) (Table 2)
Anticancer activity of the one or more phosphatidyl-THIO conjugate compounds disclosed herein, was evaluated in vitro in various cancer cell lines, according to commonly used procedures for assessment of compounds cytotoxicity, as out lined in the following publications: Mender, I., Gryaznov, S., Dikmen, Z. G., Wright, W. E., & Shay, J. W. (2015). Induction of telomere dysfunction mediated by the telomerase substrate precursor 6-thio-2′-deoxyguanosine. Cancer Discovery, 5, 82-95; Mender et al., (2020). Telomere Stress Potentiates STING-Dependent Anti-tumor Immunity. Cancer Cell, 38, 400-411.

cancer cells = experiment: Induction of telomere dysfunction-induced foci (TIF) and micronuclei in cancer cells; type: cell-based; details: treatment of cancer cells; data not shown

| Structure (SMILES) | EC50 [1] | anticancer (cytotoxic) activity, in words [1] | induction of telomere dysfunction-induced foci (TIF)-positive cells and micronuclei formation (cancer cells) |
| --- | --- | --- | --- |
| CCCC(=O)OC[C@H](COP(=O)(O)OC[C@H]1O[C@@H](n2cnc3c(=S)[nH]c(N)nc32)C[C@@H]1O)OC(=O)CCC [Compound C4-6SdG, 5′-(1,2-dibutyryl-sn-glycero-3-phospho)-6-thio-2′-deoxyguanosine] | 260 nM | – | – |
| CCCCCCCCCCCCCCCCCC(=O)OC[C@H](COP(=O)(O)OC[C@H]1O[C@@H](n2cnc3c(=S)[nH]c(N)nc32)C[C@@H]1O)OC(=O)CCCCCCCCCCCCCCCCC [Compound C18-6SdG, 5′-(1,2-distearoyl-sn-glycero-3-phospho)-6-thio-2′-deoxyguanosine] | 12400 nM | least active | – |
| CCCCCC(=O)OC[C@H](COP(=O)(O)OC[C@H]1O[C@@H](n2cnc3c(=S)[nH]c(N)nc32)C[C@@H]1O)OC(=O)CCCCC [Compound C6-6SdG, 5′-(1,2-dihexanoyl-sn-glycero-3-phospho)-6-thio-2′-deoxyguanosine] | 80 nM | – | efficient induction |
| CCCCCCCC/C=C\CCCCCCCC(=O)OC[C@H](COP(=O)(O)OC[C@H]1O[C@@H](n2cnc3c(=S)[nH]c(N)nc32)C[C@@H]1O)OC(=O)CCCCCCC/C=C\CCCCCCCC [C18:01-6SdG, 5′-(1,2-dioleoyl-sn-glycero-3-phospho)-6-thio-2′-deoxyguanosine] | 460 nM | essentially recovered cytotoxic activity | – |
| CCCCCCCCCCCC(=O)OC[C@H](COP(=O)(O)OC[C@H]1O[C@@H](n2cnc3c(=S)[nH]c(N)nc32)C[C@@H]1O)OC(=O)CCCCCCCCCCC [Compound C12-6SdG, 5′-(1,2-dilauroyl-sn-glycero-3-phospho)-6-thio-2′-deoxyguanosine] | 480 nM | – | – |
| CCCCCCCC(=O)OC[C@H](COP(=O)(O)OC[C@H]1O[C@@H](n2cnc3c(=S)[nH]c(N)nc32)[C@H](O)[C@@H]1O)OC(=O)CCCCCCC [Compound C8-6SriboG, 5′-(1,2-dioctanoyl-sn-glycero-3-phospho)-6-thio-guanosine] | 260 nM | – | – |
| CCCCCCCCCCCCCC(=O)OC[C@H](COP(=O)(O)OC[C@H]1O[C@@H](n2cnc3c(=S)[nH]c(N)nc32)C[C@@H]1O)OC(=O)CCCCCCCCCCCCC [Compound C14-6SdG, 5′-(1,2-dimyristoyl-sn-glycero-3-phospho)-6-thio-2′-deoxyguanosine] | 490 nM | – | – |
| Nc1nc2c(ncn2[C@H]2C[C@H](O)[C@@H](CO)O2)c(=S)[nH]1 [Compound 6-thio-dG, 6-thio-2′-deoxyguanosine, reference compound] | 200 nM | – | – |
| CCCCCCCCCCCC(=O)OC[C@H](COP(=O)(O)OC[C@H]1O[C@@H](n2cnc3c(=S)[nH]c(N)nc32)[C@H](O)[C@@H]1O)OC(=O)CCCCCCCCCCC [Compound C12-6SriboG, 5′-(1,2-dilauroyl-sn-glycero-3-phospho)-6-thio-guanosine] | 600 nM | – | – |
| CCCCCC(=O)OC[C@H](COP(=O)(O)OC[C@H]1O[C@@H](n2cnc3c(=S)[nH]c(N)nc32)[C@H](O)[C@@H]1O)OC(=O)CCCCC [Compound C6-6SriboG, 5′-(1,2-dihexanoyl-sn-glycero-3-phospho)-6-thio-guanosine] | 200 nM | – | – |
| CCCCCCCC(=O)OC[C@H](COP(=O)(O)OC[C@H]1O[C@@H](n2cnc3c(=S)[nH]c(N)nc32)C[C@@H]1O)OC(=O)CCCCCCC [Compound C8-6SdG, 5′-(1,2-dioctanoyl-sn-glycero-3-phospho)-6-thio-2′-deoxyguanosine] | 350 nM | – | – |
